What was measured:
Type in all cases: cell-based
[1] = system: Enterohemorrhagic Escherichia coli O157; assay: Sterilizing effect on floor surface after wiping off imitation vomit, tatami mattress; conditions: 1000 ppm available chlorine
Source text: (§1) 1) Chlorous acid aqueous solution formulation (see Example 1: Table 11) Treatment sheet (material: 100% cotton): (about 27×40 cm) *Impregnated at a ratio of weight of treatment sheet (g): amount of liquid (ml)=1:3 2) Imitation vomit Miso solution: adjusted to pH of 2 with hydrochloric acid 3) Test Microbes that were Used E. coli: Escherichia coli IF03927 Staphylococcus aureus: Staphylococcus aureus IF0 12732 Thermoduric Microbes (Bacillus cereus): Bacillus cereus NBRC15305 Microbes of the genus Salmonella: Salmonella Enteritidis IF03313 Enterohemorrhagic Escherichia coli O157: Escherichia coli O157 Enterohemorrhagic Escherichia coli O111: Escherichia coli O111 Enterohemorrhagic Escherichia coli O26: Escherichia coli O26
(§2) (1) Imitation vomit was spread in an area about the size of an A4 sheet. (2) 5 dry sheets were laid thereon. (3) An agent solution was poured on the dry sheets to wipe off the imitation vomit. (4) A cotton swab was soaked with sterile saline. A portion where imitation vomit was spread was scrubbed with the cotton swab to collect microbes remaining on the floor. After suspending in saline, the solution was spread on a petri dish and cultured. The number of each of the microbes was measured. (5) Test operations 3 and 4 were repeated a total of 7 times (repeated until the imitation vomit could be removed completely).

[2] = system: Enterohemorrhagic Escherichia coli O26; assay: as above; conditions: 1000 ppm available chlorine
Source text: as §1, §2

[3] = system: E. coli: Escherichia coli IF03927; assay: as above; conditions: 1000 ppm available chlorine
Source text: as §1, §2

[4] = system: Microbes of the genus Salmonella: Salmonella Enteritidis IF03313; assay: as above; conditions: 1000 ppm available chlorine
Source text: as §1, §2

[5] = system: Bacillus cereus NBRC15305; assay: as above; conditions: 1000 ppm available chlorine
Source text: as §1, §2

[6] = system: Enterohemorrhagic Escherichia coli O111; assay: as above; conditions: 1000 ppm
Source text: as §1, §2

[7] = system: Staphylococcus aureus IF0 12732; assay: as above; conditions: 1000 ppm available chlorine
Source text: as §1, §2

[8] = system: Enterohemorrhagic Escherichia coli O111; assay: Permeability of pathogenic microbes when treatment sheets were laid on vomit; conditions: 1000 ppm available chlorine
Source text: 1) Chlorous acid aqueous solution formulation (see Example 1: Table 11) Treatment sheet (material: 100% cotton): (about 27×40 cm) *Impregnated at a ratio of weight of treatment sheet (g): amount of liquid (ml)=1:3 2) Imitation vomit (hereinafter, referred to as vomit) Miso solution: adjusted to pH 2 with hydrochloric acid 3) Test Microbes that were used E. coli: Escherichia coli IF03927 Staphylococcus aureus: Staphylococcus aureus IF0 12732 Thermoduric Microbes (Bacillus cereus): Bacillus cereus NBRC15305 Microbes of the genus Salmonella: Salmonella Enteritidis IF03313 Enterohemorrhagic Escherichia coli 0157: Escherichia coli 0157 Enterohemorrhagic Escherichia coli 0111: Escherichia coli 0111 Enterohemorrhagic Escherichia coli 026: Escherichia coli O26
Permeability of pathogenic microbes into a treatment sheet when treating vomit was examined to compare effects of preventing secondary contamination. (1) Imitation vomit is spread in an area about the size of an A4 sheet. (2) 30 agent solution-containing treatment sheets were laid thereon and left standing for 10 minutes. (3) Treatment sheets were removed one at a time from the top. After diluting with saline, the sample was spread in a petri dish and cultured.

[9] = system: Microbes of the genus Salmonella: Salmonella Enteritidis IF03313; conditions: stored at 25° C. Day 0; 1000 ppm available chlorine
Source text: as §1, §2

OCl [Sodium Hypochlorite, sodium hypochlorite]
Number of Times Wiped 1 Time (remaining microbes) ([1]; stored at 25° C. Day 0): <10 | Number of Times Wiped 2 Times (remaining microbes) ([1]; stored at 25° C. Day 0): <10 | Number of Times Wiped 3 Times (remaining microbes) ([1]; stored at 25° C. Day 0): <10 | Number of Times Wiped 1 Time (remaining microbes) ([1]; stored at 25° C. Day 7): <10 | Number of Times Wiped 2 Times (remaining microbes) ([1]; stored at 25° C. Day 7): <10 | Number of Times Wiped 3 Times (remaining microbes) ([1]; stored at 25° C. Day 7): <10 | Number of Times Wiped 1 Time (remaining microbes) ([2]; stored at 25° C. Day 0): <10 | Number of Times Wiped 2 Times (remaining microbes) ([2]; stored at 25° C. Day 0): <10 | Number of Times Wiped 3 Times (remaining microbes) ([2]; stored at 25° C. Day 0): <10 | Number of Times Wiped 1 Time (remaining microbes) ([2]; stored at 25° C. Day 7): 8.8 × 10^3 | Number of Times Wiped 2 Times (remaining microbes) ([2]; stored at 25° C. Day 7): 4.9 × 10^3 | Number of Times Wiped 3 Times (remaining microbes) ([2]; stored at 25° C. Day 7): 3.0 × 10^3 | microbes remaining, wiped 1 Time ([3]; stored at 25° C. Day 0): <10 | microbes remaining, wiped 2 Times ([3]; stored at 25° C. Day 0): <10 | microbes remaining, wiped 3 Times ([3]; stored at 25° C. Day 0): <10 | microbes remaining, wiped 1 Time ([3]; stored at 25° C. Day 7): <10 | microbes remaining, wiped 2 Times ([3]; stored at 25° C. Day 7): <10 | microbes remaining, wiped 3 Times ([3]; stored at 25° C. Day 7): <10 | microbes remaining, wiped 1 Time ([4]; stored at 25° C. Day 0): <10 | microbes remaining, wiped 2 Times ([4]; stored at 25° C. Day 0): <10 | microbes remaining, wiped 3 Times ([4]; stored at 25° C. Day 0): <10 | microbes remaining, wiped 1 Time ([4]; stored at 25° C. Day 7): 1.5 × 10^3 | microbes remaining, wiped 2 Times ([4]; stored at 25° C. Day 7): 7.7 × 10^2 | microbes remaining, wiped 3 Times ([4]; stored at 25° C. Day 7): 1.8 × 10^2 | microbes remaining, wiped 1 Time ([5]; stored at 25° C. Day 0): <10 | microbes remaining, wiped 2 Times ([5]; stored at 25° C. Day 0): <10 | microbes remaining, wiped 3 Times ([5]; stored at 25° C. Day 0): <10 | microbes remaining, wiped 1 Time ([5]; stored at 25° C. Day 7): <10 | microbes remaining, wiped 2 Times ([5]; stored at 25° C. Day 7): <10 | microbes remaining, wiped 3 Times ([5]; stored at 25° C. Day 7): <10 | Number of Times Wiped 1 Time (remaining microbes) ([6]; stored at 25° C. Day 0): <10 | Number of Times Wiped 2 Times (remaining microbes) ([6]; stored at 25° C. Day 0): <10 | Number of Times Wiped 3 Times (remaining microbes) ([6]; stored at 25° C. Day 0): <10 | Number of Times Wiped 1 Time (remaining microbes) ([6]; stored at 25° C. Day 7): <10 | Number of Times Wiped 2 Times (remaining microbes) ([6]; stored at 25° C. Day 7): <10 | Number of Times Wiped 3 Times (remaining microbes) ([6]; stored at 25° C. Day 7): <10 | microbes remaining, wiped 1 Time ([7]; stored at 25° C. Day 0): <10 | microbes remaining, wiped 2 Times ([7]; stored at 25° C. Day 0): <10 | microbes remaining, wiped 3 Times ([7]; stored at 25° C. Day 0): <10 | microbes remaining, wiped 1 Time ([7]; stored at 25° C. Day 7): <10 | microbes remaining, wiped 2 Times ([7]; stored at 25° C. Day 7): <10 | microbes remaining, wiped 3 Times ([7]; stored at 25° C. Day 7): <10 | Microbe count, 1 sheet laid on imitation vomit ([8]; Day 0 at 25° C.): <10 | Microbe count, 2 sheets laid on imitation vomit ([8]; Day 0 at 25° C.): <10 | Microbe count, 3 sheets laid on imitation vomit ([8]; Day 0 at 25° C.): <10 | Microbe count, 4 sheets laid on imitation vomit ([8]; Day 0 at 25° C.): <10 | Microbe count, 5 sheets laid on imitation vomit ([8]; Day 0 at 25° C.): <10 | Microbe count, 6 sheets laid on imitation vomit ([8]; Day 0 at 25° C.): <10 | Microbe count, 8 sheets laid on imitation vomit ([8]; Day 0 at 25° C.): <10 | Microbe count, 10 sheets laid on imitation vomit ([8]; Day 0 at 25° C.): <10 | Microbe count, 20 sheets laid on imitation vomit ([8]; Day 0 at 25° C.): <10 | Microbe count, 30 sheets laid on imitation vomit ([8]; Day 0 at 25° C.): <10 | Microbe count, 1 sheet laid on imitation vomit ([8]; Day 7 at 25° C.): >10^6 | Microbe count, 2 sheets laid on imitation vomit ([8]; Day 7 at 25° C.): >10^6 | Microbe count, 3 sheets laid on imitation vomit ([8]; Day 7 at 25° C.): >10^6 | Microbe count, 4 sheets laid on imitation vomit ([8]; Day 7 at 25° C.): >10^6 | Microbe count, 5 sheets laid on imitation vomit ([8]; Day 7 at 25° C.): >10^6 | Microbe count, 6 sheets laid on imitation vomit ([8]; Day 7 at 25° C.): >10^6 | Microbe count, 8 sheets laid on imitation vomit ([8]; Day 7 at 25° C.): >10^6 | Microbe count, 10 sheets laid on imitation vomit ([8]; Day 7 at 25° C.): >10^6 | Microbe count, 20 sheets laid on imitation vomit ([8]; Day 7 at 25° C.): >10^6 | Microbe count, 30 sheets laid on imitation vomit ([8]; Day 7 at 25° C.): >10^6 | Number of Times Wiped 1 Time (remaining microbes) [9]: <10 | Number of Times Wiped 2 Times (remaining microbes) [9]: <10 | Number of Times Wiped 3 Times (remaining microbes) [9]: <10
